Read-outs that look alike come from different tables or passages of the source.
Key:
2J2 = molecular target: T1, 2J2 (Homo sapiens, UniProt P51589); test: Pathway-selective substrate metabolism in human enterocytes, 2J2; type: in vitro ADME; conditions: Intact Cryopreserved Enterocytes; 30 min, 37° C.
T1 construct: enterocytes are isolated from human intestines by collagenase digestion; endogenous in cells; host or cells: primary human enterocytes, intact or permeabilized with cofactors
T1 sequence (P51589 1-502): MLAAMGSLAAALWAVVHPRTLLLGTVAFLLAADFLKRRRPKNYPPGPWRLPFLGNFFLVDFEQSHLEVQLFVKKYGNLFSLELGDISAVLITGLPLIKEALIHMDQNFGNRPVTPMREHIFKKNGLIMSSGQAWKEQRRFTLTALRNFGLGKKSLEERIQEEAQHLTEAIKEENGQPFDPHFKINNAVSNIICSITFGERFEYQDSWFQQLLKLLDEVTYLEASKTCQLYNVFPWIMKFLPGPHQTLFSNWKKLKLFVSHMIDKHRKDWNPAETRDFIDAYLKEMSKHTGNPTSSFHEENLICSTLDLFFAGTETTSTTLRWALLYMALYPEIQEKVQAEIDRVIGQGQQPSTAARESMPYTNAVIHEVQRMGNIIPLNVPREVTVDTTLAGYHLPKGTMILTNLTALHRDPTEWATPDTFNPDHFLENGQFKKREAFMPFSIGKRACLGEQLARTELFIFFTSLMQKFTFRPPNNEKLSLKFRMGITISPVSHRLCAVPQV

[1] = known in vivo hepatic clearance, human; cited from earlier work
[2] = system: permeabilized human hepatocytes; test: Cofactor-directed metabolic pathway selection of coumarin metabolism; type: in vitro ADME; conditions: 75 micromolar coumarin, 30 min
Experimental: Intact human hepatocytes allow metabolism of a drug by all hepatic pathways, selection of a specific metabolic pathway for evaluation is not easily accomplished. […] The metabolism of coumarin was used as a model for cofactor directed metabolic pathway selection. See FIG. 12 for the co-factor directed pathway selection of coumarin metabolism with the present permeabilized human hepatocytes. The exogenous drug metabolizing enzyme co-factors used were 2 mM NADPH, 2 mM NADPH+1 mM PAPS and 2 mM NADPH+5 mM […], and no cofactor addition used as a control.

[3] = system: permeabilized human hepatocytes
Experimental: The drugs evaluated were added at a concentration of 1 μM to a hepatocyte culture of 1 million cells/ml.

human enterocytes = test: 7-ethoxycoumarin O-deethylation (ECOD) activity in human enterocytes; type: in vitro ADME; conditions: Group D permeabilized enterocytes with cofactors compared with Groups A-C (intact ± cofactors, permeabilized without cofactors)
Experimental: The assay was performed essentially as disclosed in Example 2, wherein the in vitro reagent comprises enterocytes and exogenous drug metabolizing enzyme co-factors (NADPH, UPGA, and PAPS), herein referred to as “cofactors”. As comparators, intact enterocytes, that were not permeabilized, were used wherein one group was incubated with cofactors and another group was incubated without cofactors, each in the presence of the xenobiotic test compound. Permeabilized enterocytes incubated without cofactors were used as a control. The test groups were: Group A—intact enterocytes incubated without cofactors; Group B—intact enterocytes incubated with cofactors; Group C—permeabilized enterocytes incubated without cofactors (control); Group D—the in vitro reagent (permeabilized enterocytes incubated with cofactors). […] Permeabilization (by freezing without cryoprotectants followed by thawing) allows maximal interaction of the intracellular enzymes with the substrate (7-ethoxycoumarin), and the addition of cofactors overcomes the dilution of intracellular cofactors due to permeabilization.

SMILES: COc1ccc(CCN2CCC(Nc3nc4ccccc4n3Cc3ccc(F)cc3)CC2)cc1 [Astemizole]
- Metabolic Activity, O-Demethyl Astemizole formation (2J2): BLQ

SMILES: O=P1(NCCCl)OCCCN1CCCl (stereo not drawn) [Ifosfamide]
- cytotoxicity on HEK 293 cells (cellular ATP content) (HEK293 cells): enhanced

SMILES: CN(C)C/C=C/C(=O)Nc1cc2c(Nc3ccc(F)c(Cl)c3)ncnc2cc1O[C@H]1CCOC1 [Afatinib]
- Observed in vivo CIsys [1]: 15 mL/min/kg

SMILES: CC(C)NCC(O)COc1ccc(CCOCC2CC2)cc1 (stereo not drawn) [Betaxolol]
- Observed in vivo CIsys [1]: 4.8 mL/min/kg

SMILES: NC(=O)N1c2ccccc2C=Cc2ccccc21 [Carbamazepine]
- Observed in vivo CIsys [1]: 0.4 mL/min/kg

SMILES: CN1C(=O)CN=C(c2ccccc2)c2cc(Cl)ccc21 [Diazepam]
- Observed in vivo CIsys [1]: 0.4 mL/min/kg

SMILES: O=c1ccc2ccccc2o1 [coumarin]
- Cofactor selection Result (metabolite formation) ([2]; NADPH only (2 mM)): minimal sulfation and glucuronidation
- Cofactor selection Result (metabolite formation) ([2]; No co-factors): No metabolism

SMILES: O=C(O)Cc1ccccc1Nc1c(Cl)cccc1Cl [Diclofenac]
- Observed in vivo CIsys [1]: 4.2 mL/min/kg

SMILES: COc1ccc2c(c1)[C@]13CCCC[C@@H]1[C@H](C2)N(C)CC3 [Dextromethorphan]
- Permeabilized Hepatocytes Average (predicted clearance) [3]: 7.3
- Observed in vivo CIsys [1]: 8.6 mL/min/kg

SMILES: O=C1Nc2ccc(Cl)cc2C(c2ccccc2Cl)=NC1O (stereo not drawn) [Lorazepam]
- Observed in vivo CIsys [1]: 1.1 mL/min/kg

SMILES: CCOc1ccc2ccc(=O)oc2c1 [7-ethoxycoumarin]
- 7-ethoxycoumarin O-deethylation (ECOD) activity (human enterocytes): Highest activity

SMILES: Cc1cc(=O)n(-c2ccccc2)n1C [Antipyrine]
- Observed in vivo CIsys [1]: 0.5 mL/min/kg

SMILES: O=P1(N(CCCl)CCCl)NCCCO1 (stereo not drawn) [Cyclophosphamide]
- cytotoxicity on HEK 293 cells (cellular ATP content) (HEK293 cells; with permeabilized human hepatocytes (cofactor supplemented) vs boiled or no hepatocytes, 24 hours): enhanced

Reference: US20180094320A1, “IN VITRO DRUG METABOLISM REAGENT AND USES THEREOF” (priority 2016, published 2018)
